Marks after values point to notes of the source that are not given here.
System: prostate
Assay: Prostate-reducing activity: prostate weight of male rats after 14-15 days of once-daily oral treatment with an EGF-R-TK inhibitor
Format: in vivo
Method: The active substance is administered once a day as a suspension through an oesophageal tube. After the test period has ended the animals are killed, their prostates are removed and weighed.

[1] = 10 mg/kg once a day by oesophageal tube, length of treatment 14 days
[2] = 30 mg/kg once a day by oesophageal tube, length of treatment 14 days
[3] = 100 mg/kg once a day by oesophageal tube, length of treatment 14 days
[4] = 10 mg/kg once a day by oesophageal tube, length of treatment 15 days
[5] = 30 mg/kg once a day by oesophageal tube, length of treatment 15 days
[6] = 100 mg/kg once a day by oesophageal tube, length of treatment 15 days

| Compound | average absolute weight (prostate) [1] | average relative weight [% of body weight] (prostate) [1] | average relative weight [% of the brain] (prostate) [1] | average absolute weight (prostate) [2] [g] | average relative weight [% of body weight] (prostate) [2] | average relative weight [% of the brain] (prostate) [2] | average absolute weight (prostate) [3] | average relative weight [% of body weight] (prostate) [3] | average relative weight [% of the brain] (prostate) [3] | average absolute weight (prostate) [4] | average relative weight [% of body weight] (prostate) [4] | average relative weight [% of the brain] (prostate) [4] | average absolute weight (prostate) [5] | average relative weight [% of body weight] (prostate) [5] | average relative weight [% of the brain] (prostate) [5] | average absolute weight (prostate) [6] | average relative weight [% of body weight] (prostate) [6] | average relative weight [% of the brain] (prostate) [6] |
| --- | --- | --- | --- | --- | --- | --- | --- | --- | --- | --- | --- | --- | --- | --- | --- | --- | --- | --- |
| CN(CC=CC(=O)Nc1cc2c(Nc3ccc(F)c(Cl)c3)ncnc2cc1OC1CCCC1)C1CC1 [compound b, 4-[(3-chloro-4-fluorophenyl)amino]-6-{[4-(N-cyclopropyl-N-methyl-amino)-1-oxo-2-buten-1-yl]amino}-7-cyclopentyloxy-quinazoline] | 0.3983* g | 0.1622* % of body weight | 20.23* % of the brain | 0.3989 | 0.1697 % of body weight | 20.71* % of the brain | 0.1848* g | 0.1191* % of body weight | 10.13* % of the brain | – | – | – | – | – | – | – | – | – |
| CN(C)CC=CC(=O)Nc1cc2c(Nc3ccc(F)c(Cl)c3)ncnc2cc1OC[C@@H]1CCCO1 [compound c, 4-[(3-chloro-4-fluorophenyl)amino]-6-{[4-(N,N-dimethylamino)-1-oxo-2-buten-1-yl]amino}-7-[(S)-(tetrahydrofuran-2-yl)methoxy]-quinazoline] | – | – | – | – | – | – | – | – | – | 0.3854* g | 0.1681 % of body weight | 19.67* % of the brain | 0.2242* g | 0.1117* % of body weight | 11.50* % of the brain | 0.1463* g | 0.0892* % of body weight | 7.63* % of the brain |
